≈ marks a conversion by molar mass, not a printed value.
Test system: Clostridium perfringens

| SMILES | MIC [µg/mL] |
| --- | --- |
| CC(=O)NC[C@H]1CN(c2ccc(N3CCOCC3)c(F)c2)C(=O)O1 [LINEZOLID] | 64 (≈ 190 µM) |
| CS(=O)(=O)c1ccc([C@@H](O)[C@@H](CF)NC(=O)C(Cl)Cl)cc1 [FLORFENICOL] | 16 (≈ 44.7 µM) |

— ChEMBL document CHEMBL1240402 (2010)
